The source of these data is publication PMC9229843, “Cancer-Related Somatic Mutations in Transmembrane Helices Alter Adenosine A1 Receptor Pharmacology” (Molecules, 2022).

Common to all, as to test: yeast liquid growth assay
Common to all, as to type: cell-based

In one test the target is T1, hA1AR T257P^6.58 (Homo sapiens, UniProt P30542, T257P).
T1 construct: expressed in transfected cells; host or cells: S. cerevisiae MMY24
T1 sequence (P30542 1-326 T257P): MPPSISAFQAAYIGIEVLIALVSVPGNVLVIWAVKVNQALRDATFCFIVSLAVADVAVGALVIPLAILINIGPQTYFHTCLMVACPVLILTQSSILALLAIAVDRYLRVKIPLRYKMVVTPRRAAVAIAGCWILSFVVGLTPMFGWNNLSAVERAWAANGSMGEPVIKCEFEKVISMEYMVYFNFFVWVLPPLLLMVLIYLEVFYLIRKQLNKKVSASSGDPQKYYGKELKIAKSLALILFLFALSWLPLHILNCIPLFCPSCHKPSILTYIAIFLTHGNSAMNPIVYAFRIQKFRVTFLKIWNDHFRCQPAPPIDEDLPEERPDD
Conditions: result in words.

The target in another test is T2, hA1AR D55V^2.50 (Homo sapiens, UniProt P30542, D55V).
T2 construct: expressed in transfected cells; host or cells: S. cerevisiae MMY24
T2 sequence (P30542 1-326 D55V): T1 sequence (P30542 1-326 T257P) with D55V, P257T
Conditions: result in words.

The next test deals with T3, hA1AR W188C^5.46 (Homo sapiens, UniProt P30542, W188C).
T3 sequence (P30542 1-326 W188C): T1 sequence (P30542 1-326 T257P) with W188C, P257T

For a further test, the target named is T4, hA1AR G279S^7.44 (Homo sapiens, UniProt P30542, G279S).
T4 sequence (P30542 1-326 G279S): T1 sequence (P30542 1-326 T257P) with P257T, G279S
Conditions: ratio over basal activity of wild type hA1AR, 7 mM 3-AT.

In the next test the target is T5, hA1AR H78L^3.23 (Homo sapiens, UniProt P30542, H78L).
T5 sequence (P30542 1-326 H78L): T1 sequence (P30542 1-326 T257P) with H78L, P257T

[1] abbreviates: ratio over basal activity of wild type hA1AR, 7 mM 3-AT.

The structures appear in SMILES notation. Numbering of substitutions follows the chain as printed.

As to `OC[C@H]1O[C@@H](n2cnc3c(NC4CCCC4)ncnc32)[C@H](O)[C@@H]1O` [CPA, N^6-cyclopentyladenosine], the agonist-induced receptor activation result at hA1AR T257P^6.58 is recorded as “could not be activated”; at hA1AR D55V^2.50 it was “could not be activated”; on hA1AR H78L^3.23 (result in words), “further activation could not be obtained”. Moreover, the “decrease in potency versus wild type hA1AR” value on hA1AR W188C^5.46 was 10 fold. In addition, the Emax turned out to be 4.35 ± 0.10 at hA1AR W188C^5.46 (setting [1]), 4.96 ± 0.38 on hA1AR G279S^7.44 and 4.15 ± 0.17 at hA1AR H78L^3.23 (setting [1]).
